Patent US20070213339A1 (Bayer Pharmaceuticals Corporation, priority 2004, published 2007)

Tested on: Colo205 human colon carcinoma cell line
Test: In vitro tumor cell proliferation assay (MTS, CellTiter 96 Aqueous One Solution)
Format: cell-based
Details: COLO 205, Colo205 cells, 72 hours compound exposure, MTS absorbance at 490 nm, read-out: IC50 (concentration of test compound required to inhibit proliferation of 50% of the cells)
Method: In Vitro Tumor Cell Proliferation Assay
The adherent H460 human non-small cell lung carcinoma and Colo205 human colon carcinoma cell lines were purchased from the American Type and Culture Collection (ATCC, Manassas, Va.) and maintained in RPMI-1640 growth media supplemented with 10% heat inactivated fetal bovine serum (Gibco, Invitrogen Corp. Grand Island, N.Y.). At 37° C. in a humidified atmosphere of 5% CO2.
The CellTiter 960 Aqueous One Solution kit, MTS, (Promega, Madison, Wis.) was used to measure proliferation of tumor cell lines in vitro. This method monitors the bioreduction of a tetrazolium dye as a measure of cell viability. On Day 0, exponentially growing cells were trypsinized, resuspended in RPMI-1640 growth media supplemented with 10% FCS, 100 u/ml of penicillin G and 100 ug/ml of streptomycin sulfate, and seeded at 2000 cells per well into 96 well microtiter plates. Cells were incubated overnight in a humidified atmosphere of 5% CO2 at 37° C. On Day 1, serial dilutions of compounds were prepared at 2× the finial assay concentration. One hundred microliters of 2× solution was added to test wells in duplicate and control wells received no test compound. The final drug concentration ranged from 0 to 10-20 um in a 5 point dose-response curve. Cells were incubated in the presence of test compounds in a humidified atmosphere of 5% CO2 at 37° C. for 72 hours. After 72 hours of compound exposure, 40 ul of Promega CellTiter 960 Aqueous One Solution was added to each well and absorbance at 490 n-M was measured using a multi-well plate reader. Percent inhibition of proliferation was calculated using the following formula: 100×(1−Absorbancetreated−Background/(Absorbancecontrol−Background)
Absorbancetreated=absorbance at 490 nm in test wells, cells with test compound
Absorbancecontrol=absorbance at 490 nm in control wells, cells with no test compound
Background=absorbance 490 nm in wells containing media and no cells
The concentration of test compound required to inhibit proliferation of 50% of the cells (IC50) was determined by linear regression analysis.
Representative compounds of the invention were tested in the above-described Colo205 human colon carcinoma cell line in vitro assay and found to inhibit human colon carcinoma cell proliferation, and are summarized as follows: […]

Row | SMILES | IC50
1 | COc1c(N2CCN(c3ccccc3[N+](=O)[O-])CC2)c(F)cc2c(=O)c(C(=O)O)cn(-c3ccc(CN(C)C)cc3)c12 [Example 104, 1-{4-[(dimethylamino)methyl]phenyl}-6-fluoro-8-methoxy-7-[4-(2-nitrophenyl)piperazin-1-yl]-4-oxo-1,4-dihydroquinoline-3-carboxylic acid] | 2000 to 20000 nM
2 | O=C(O)c1cn(-c2ccc(CN3CCCC3)nc2)c2c(Cl)c(N3CCN(c4ccc(Cl)cc4)CC3)c(F)cc2c1=O [Example 38, 8-chloro-7-[4-(4-chlorophenyl)piperazin-1-yl]-6-fluoro-4-oxo-1-[6-(pyrrolidin-1-ylmethyl)pyridin-3-yl]-1,4-dihydroquinoline-3-carboxylic acid] | < 500 nM
3 | COc1c(N2CCN(c3ccccc3[N+](=O)[O-])CC2)c(F)cc2c(=O)c(C(=O)O)cn(-c3ccc(CN4CCCC4)cc3)c12 [Example 84, 6-fluoro-8-methoxy-7-[4-(2-nitrophenyl)-piperazin-1-yl]-4-oxo-1-[4-(pyrrolidin-1-ylmethyl)phenyl]-1,4-dihydroquinoline-3-carboxylic acid] | 500 to 2000 nM
4 | COc1c(N2CCN(c3ncccn3)CC2)c(F)cc2c(=O)c(C(=O)O)cn(-c3ccc(CN(C)C)cc3)c12 [Example 96, 1-{4-[(dimethylamino)methyl]phenyl}-6-fluoro-8-methoxy-4-oxo-7-(4-pyrimidin-2-ylpiperazin-1-yl)-1,4-dihydroquinoline-3-carboxylic acid] | < 500 nM
5 | COc1c(N2CCN(c3ccc(Cl)cc3)CC2)c(F)cc2c(=O)c(C(=O)O)cn(-c3ccc(CN4CCCCC4)cc3)c12 [Example 90, 7-[4-(4-chlorophenyl)piperazin-1-yl]-6-fluoro-8-methoxy-4-oxo-1-[4-(piperidin-1-ylmethyl)phenyl]-1,4-dihydroquinoline-3-carboxylic acid] | < 500 nM
6 | Cc1cccc(N2CCN(c3c(F)cc4c(=O)c(C(=O)O)cn(-c5ccc(CN6CCCC6)cc5)c4c3Cl)CC2)n1 [Example 13, 8-chloro-6-fluoro-7-[4-(6-methylpyridin-2-yl)-piperazin-1-yl]-4-oxo-1-[4-(pyrrolidin-1-ylmethyl)phenyl]-1,4-dihydroquinoline-3-carboxylic acid] | < 500 nM
7 | O=C(O)c1cn(-c2ccc(CN3CCCC3)cc2)c2c(Cl)c(N3CCN(c4ccccn4)CC3)c(F)cc2c1=O [Example 1, 8-chloro-6-fluoro-4-oxo-7-(4-pyridin-2-yl-piperazin-1-yl)-1-[4-(pyrrolidin-1-ylmethyl)phenyl]-1,4-dihydroquinoline-3-carboxylic acid] | < 500 nM
8 | N#Cc1ccc(N2CCN(c3c(F)cc4c(=O)c(C(=O)O)cn(-c5ccc(CN6CCCC6)cc5F)c4c3Cl)CC2)cc1 [Example 48, 8-chloro-7-[4-(4-cyanophenyl)piperazin-1-yl]-6-fluoro-1-[2-fluoro-4-(pyrrolidin-1-ylmethyl)phenyl]-4-oxo-1,4-dihydroquinoline-3-carboxylic acid] | < 500 nM
9 | CCN(CC)Cc1ccc(-n2cc(C(=O)O)c(=O)c3cc(F)c(N4CCN(c5ccccc5OC)CC4)c(OC)c32)cc1 [Example 110, 1-{4-[(diethylamino)methyl]phenyl}-6-fluoro-8-methoxy-7-[4-(2-methoxyphenyl)piperazin-1-yl]-4-oxo-1,4-dihydroquinoline-3-carboxylic acid] | < 500 nM
10 | C[C@H]1CCCCN1Cc1ccc(-n2cc(C(=O)O)c(=O)c3cc(F)c(N4CCN(c5ncccn5)CC4)c(OC(F)(F)F)c32)cc1 [Example 139, 6-fluoro-1-(4-{[(2S)-2-methylpiperidin-1-yl]methyl}phenyl)-4-oxo-7-(4-pyrimidin-2-ylpiperazin-1-yl)-8-(trifluoromethoxy)-1,4-dihydroquinoline-3-carboxylic acid] | < 500 nM
11 | CN(C)CCc1ccc(-n2cc(C(=O)O)c(=O)c3cc(F)c(N4CCN(c5ccccn5)CC4)c(Cl)c32)cc1 [Example 69, 8-chloro-1-{4-[2-(dimethylamino)ethyl]phenyl}-6-fluoro-4-oxo-7-(4-pyridin-2-ylpiperazin-1-yl)-1,4-dihydroquinoline-3-carboxylic acid] | < 500 nM
12 | Cc1ccc(N2CCN(c3c(F)cc4c(=O)c(C(=O)O)cn(-c5ccc(CN6CCCC6)cc5)c4c3OC(F)(F)Cl)CC2)cc1C [Example 151, 8-[chloro(difluoro)methoxy]-7-[4-(3,4-dimethylphenyl)piperazin-1-yl]-6-fluoro-4-oxo-1-[4-(pyrrolidin-1-ylmethyl)phenyl]-1,4-dihydroquinoline-3-carboxylic acid] | < 500 nM
13 | O=C(O)c1cn(-c2cccc(CN3CCCCC3)c2)c2c(Cl)c(N3CCN(c4ncccn4)CC3)c(F)cc2c1=O [Example 66, 8-chloro-6-fluoro-4-oxo-1-[3-(piperidin-1-yl-methyl)phenyl]-7-(4-pyrimidin-2-ylpiperazin-1-yl)-1,4-dihydroquinoline-3-carboxylic acid] | 2000 to 20000 nM
14 | CON(C)Cc1ccc(-n2cc(C(=O)O)c(=O)c3cc(F)c(N4CCN(c5ccc(Cl)cc5)CC4)c(Cl)c32)cc1 [Example 52, 8-chloro-7-[4-(4-chlorophenyl)piperazin-1-yl]-6-fluoro-1-(4-{[methoxy(methyl)amino]methyl}phenyl)-4-oxo-1,4-dihydroquinoline-3-carboxylic acid] | 2000 to 20000 nM
15 | CCOc1ccc(N2CCN(c3c(F)cc4c(=O)c(C(=O)O)cn(-c5ccc(CN6CCCC6)cc5)c4c3Cl)CC2)cc1 [Example 12, 8-chloro-7-[4-(4-ethoxyphenyl)piperazin-1-yl]-6-fluoro-4-oxo-1-[4-(pyrrolidin-1-ylmethyl)phenyl]-1,4-dihydroquinoline-3-carboxylic acid] | 2000 to 20000 nM
16 | N#Cc1cccnc1N1CCN(c2c(F)cc3c(=O)c(C(=O)O)cn(-c4ccc(CN5CCCC5)cc4)c3c2OC(F)(F)Cl)CC1 [Example 149, 8-[chloro(difluoro)methoxy]-7-[4-(3-cyanopyridin-2-yl)piperazin-1-yl]-6-fluoro-4-oxo-1-[4-(pyrrolidin-1-ylmethyl)-phenyl]-1,4-dihydroquinoline-3-carboxylic acid] | < 500 nM
17 | CCN(CC)Cc1ccc(-n2cc(C(=O)O)c(=O)c3cc(F)c(N4CCN(c5cccc(Cl)c5)CC4)c(OC(F)(F)F)c32)cc1 [Example 136, 7-[4-(3-chlorophenyl)piperazin-1-yl]-1-{4-[(diethylamino)methyl]phenyl}-6-fluoro-4-oxo-8-(trifluoromethoxy)-1,4-dihydroquinoline-3-carboxylic acid] | < 500 nM
18 | COc1c(N2CCN(c3ccc(Cl)cc3)CC2)c(F)cc2c(=O)c(C(=O)O)cn(-c3ccc(CN4CCCC4)cc3)c12 [Example 80, 7-[4-(4-chlorophenyl)piperazin-1-yl]-6-fluoro-8-methoxy-4-oxo-1-[4-(pyrrolidin-1-ylmethyl)phenyl]-1,4-dihydroquinoline-3-carboxylic acid] | 500 to 2000 nM
19 | CCN(CC)Cc1ccc(-n2cc(C(=O)O)c(=O)c3cc(F)c(N4CCN(c5ccc(C(F)(F)F)cc5)CC4)c(OC)c32)cc1 [Example 112, 1-{4-[(diethylamino)methyl]phenyl}-6-fluoro-8-methoxy-4-oxo-7-{4-[4-(trifluoromethyl)phenyl]piperazin-1-yl}-1,4-dihydroquinoline-3-carboxylic acid] | 2000 to 20000 nM
20 | COC[C@H]1CCCN1Cc1ccc(-n2cc(C(=O)O)c(=O)c3cc(F)c(N4CCN(c5ncccn5)CC4)c(Cl)c32)cc1 [Example 22, 8-chloro-6-fluoro-1-(4-{[(2R)-2-(methoxy-methyl)pyrrolidin-1-yl]methyl}phenyl)-4-oxo-7-(4-pyrimidin-2-ylpiperazin-1-yl)-1,4-dihydroquinoline-3-carboxylic acid] | 500 to 2000 nM
21 | COc1c(N2CCN(c3ccccc3)CC2)c(F)cc2c(=O)c(C(=O)O)cn(-c3ccc(CN(C)C)cc3)c12 [Example 97, 1-{4-[(dimethylamino)methyl]phenyl}-6-fluoro-8-methoxy-4-oxo-7-(4-phenylpiperazin-1-yl)-1,4-dihydroquinoline-3-carboxylic acid] | < 500 nM
22 | CN(C)Cc1ccc(-n2cc(C(=O)O)c(=O)c3cc(F)c(N4CCN(c5ncccn5)CC4)c(OC(F)(F)F)c32)cc1 [Example 128, 1-{4-[(dimethylamino)methyl]phenyl}-6-fluoro-4-oxo-7-(4-pyrimidin-2-ylpiperazin-1-yl)-8-(trifluoromethoxy)-1,4-dihydroquinoline-3-carboxylic acid] | < 500 nM
23 | O=C(O)c1cn(-c2cccc(CN3CCCCC3)c2)c2c(OC(F)(F)F)c(N3CCN(c4ccccc4F)CC3)c(F)cc2c1=O [Example 144, 6-fluoro-7-[4-(2-fluorophenyl)piperazin-1-yl]-4-oxo-1-[3-(piperidin-1-ylmethyl)phenyl]-8-(trifluoromethoxy)-1,4-dihydroquinoline-3-carboxylic acid] | 2000 to 20000 nM
